Measured values taken from patent publication US20250268165A1, “METHOD FOR PRODUCING HAPLOID AND DOUBLED HAPLOID SUNFLOWER PLANTS BY MICROSPORE CULTURE” (KWS SAAT SE & Co. KGaA, priority 2022, published 2025).

Columns and labels:
[1] = test system: isolated microspores of Helianthus annuus, 007 Genotype; experiment: Callus induction from isolated microspores with different 2,4-D concentrations in induction media II (Example 4.3); type: cell-based
Method: Top row: arrows indicate where embryos are located (magnification). Bottom row: corresponding petri dish.
(§1) Solution of microspore density of 80.000 microspores per ml are centrifuged for 10 min at 200 g and supernatant is decanted. Induction media I (see, for example, Table 3.4) is added to the remaining microspores and divided into plastic tubes. Histone deacetylase inhibitor (HDACi) and colchicine are added to each tube and microspore solutions are stored at 26° C. for 2 days. If the HDACi trichostatin A (TSA) is used, it is dissolved in dimethylsulfoxide (DMSO) to a final concentration of between 1M and 10 μM, preferably 100 nM to 10 μM, more preferably 1 μM to 10 μM, depending on the genotype and the plant donor sources. If colchicine is used, it is dissolved in water to a final concentration of between 1 mg and 500 mg, preferably 10 mg to 200 mg, more preferably 50 mg to 100 mg, depending on the genotype and the plant donor sources. The HDACi and the chromosome doubling agent are removed by centrifugation for 10 min, 200 g. Supernatant is decanted, corresponding amount of induction media I is added, and microspores resuspended. Tubes are incubated at 26° C. in the dark for several days.
(§2) Thereafter, microspore solutions are centrifuged for 10 min at 200 g and supernatant is decanted. Corresponding amounts of induction media II with different 2,4-D concentrations is added according to the treatments (see, for example, Table 3.5) and the microspore solution is plated in petri dishes and placed at 26° C. for callus induction.
Depending on tissue culture length, and the tissue culture system, at least one antibiotic can be added to Incubation Medium II, such as carbenicillin, penicillin or timentin. One to two weeks after isolation, the first microspore nuclear division can be observed (DAPI staining). Callus structures can be seen by eye after approximately three weeks after isolation.

[2] = test system: sunflower microspore derived calluses; experiment: Plant regeneration: shoots regenerated per callus unit after callus induction with auxin analogs (Example 4.2); type: cell-based, Helianthus annuus; settings: auxin analog used during callus induction (FIG. 8B)
Method: as §2, with “auxin and auxin analogs” for “2,4-D concentrations”, “3.3)” for “3.5)”, “[…]” for “26° C.”, “induction. Abbreviations used in Table 3.3: 3.5ME=3,5-dimethylphenoxyacetic acid; PHAA=Phenoxyacetic acid; 4-CPA or 4CIPA=p-Chlorophenoxyacetic acid.” for “induction.”
Callus is removed from liquid media and transferred to regeneration media (see, for example, Table 4) with 1 mg/L BAP and grown at 26° C. in the light until plant regeneration is observed, approximately 2 weeks after transfer (FIG. 4)

[3] = test system: isolated microspores of Helianthus annuus; experiment: Callus induction from isolated microspores with auxin analogs in induction media II (Example 4.2); type: cell-based; settings: 1 mg/L (FIG. 8A), control with 2,4-D
Method: as §1, with “example, Table 3.2) is added” for “example, Table 3.4) is added”, “of between 1 nM and 10” for “of between 1M and 10”, “mg and 300 mg, preferably” for “mg and 500 mg, preferably”, “donor sources. Another antimitotic agent, e.g., oryzalin and/or trifluralin, or any other chromosome doubling agent may be used as well. The HDACi” for “donor sources. The HDACi”, “microspores resuspended. Usually, an auxin or a (synthetic) analog thereof will usually be applied in a concentration of about 0.05 to about 3 mg/L. Tubes are” for “microspores resuspended. Tubes are”, “several days. […]” for “several days.”

[4] = test system: microspore derived sunflower shoots; experiment: Plant rooting of microspore derived shoots in rooting media (Example 5.2); type: in vivo, Helianthus annuus; settings: rooting media (MS), 24° C. in the light, approximately 2 weeks after transfer; auxin 0.5 mg/L
Method: Shoots are transferred to growing/rooting medium (see, for example, Table 5) with or without one auxin (in the example PAA (phenylacetic acid) or IBA were used) and grown at 24° C. in the light until root formation is observed, approximately 2 weeks after transfer (FIG. 10).

O=C(O)COc1ccc(Cl)cc1Cl [2,4-D, 2,4-Dichlorophenoxyacetic acid]
Generation of microspore-derived embryos ([1]; 0.5, 0.2, 0.1 mg/L 2,4-D and Ctrl 1 mg/L 2,4-D): observed in all treatments | Induction of microspore division and callus formation ([1]; 0.5, 0.2, 0.1 mg/L 2,4-D and Ctrl 1 mg/L in induction media II, 007 Genotype (FIG. 9)): able to induce microspore division and callus formation | Callus formation of the treatments compared with control ([1]; 0.5, 0.2, 0.1 mg/L 2,4-D versus Ctrl 1 mg/L 2,4-D): did not decreased or enhanced callus formation

Cc1cc(C)cc(OCC(=O)O)c1 [3.5ME, 3,5-dimethylphenoxyacetic acid]
Regeneration: number of shoots regenerated per callus unit in comparison to control [2]: tendency to increase regeneration

O=C(O)COc1ccc(Cl)cc1 [4CIPA/4-CPA, p-Chlorophenoxyacetic acid]
Callus quantity (callus number) in comparison to control [3]: tendency to increase callus quantity | Regeneration: number of shoots regenerated per callus unit in comparison to control [2]: tendency to increase regeneration

O=C(O)CCCc1c[nH]c2ccccc12 [IBA, indole-3-butyric acid]
Cultivated plants showing root formation [4]: 68%
